For series [1], the system named is HeLa. Description: Antiproliferative activity against human HeLa cells incubated for 48 hrs by MTT assay. The format is functional, cell-based. (In general: Tetrazolium dyes change colour on reduction, which living cells bring about.)
Another series relates to A549. Briefly: Antiproliferative activity against human A549 cells incubated for 48 hrs by MTT assay. The format is functional, cell-based. The settings on record: A549, 48 h.
In series [2] the test system is HeLa. Briefly: Effect on total c-Met protein level in human HeLa cells at 1.25 to 20 uM incubated for 24 hrs by Western blot method. The format is cell-based. In general terms: In western blotting, separated proteins are transferred to a membrane and probed.

pIC50: −log10 of the molar value.

For `Cc1ccc(S(=O)(=O)Nc2nccc3ncc(-c4cnn(C)c4)cc23)cc1`, the pIC50 with HeLa [1] and in the series with A549 was less than 4.30 throughout.
Turning to `Cn1cc(-c2cnc3ccnc(NS(=O)(=O)c4cccs4)c3c2)cn1`, the pIC50 with HeLa [1] is 4.76; in the series with A549, 5.03.
On to `Cn1cc(-c2cnc3ccc(NS(=O)(=O)c4cccs4)nc3c2)cn1`, for which the pIC50 in the series on HeLa [1] is 4.42; with A549 it was 4.40.
For `COc1ccc(C(=O)Nc2ccc3ncc(-c4cnn(C)c4)cc3n2)cc1`, in that order: 5.31 and 5.19.
In the case of `CC(=O)Nc1nccc2ncc(-c3cnn(C)c3)cc12`, the pIC50 with HeLa [1] and in the series on A549 was less than 4.30 in each case.
Regarding `Cn1cc(-c2cnc3ccc(NC(=O)c4cccnc4)nc3c2)cn1`, the pIC50 with HeLa [1] and in the series on A549 was less than 4.30 throughout.
On to `Cn1cc(-c2cnc3ccc(NS(=O)(=O)c4ccc(C(F)(F)F)cc4)nc3c2)cn1`, for which the pIC50 in the series with HeLa [1] and in the series on A549 was less than 4.30 in each case.
In the case of `Cn1cc(-c2cnc3ccnc(N)c3c2)cn1`, the pIC50 in the series with HeLa [1] was 4.39; with A549 it was 4.48.
Turning to `Cn1cc(-c2cnc3ccnc(NC(=O)C4CC4)c3c2)cn1`, the pIC50 in the series on HeLa [1] and in the series with A549 was less than 4.30 in each case.
As for `Cn1cc(-c2cnc3ccnc(NC(=O)c4cccnc4)c3c2)cn1`, the pIC50 with HeLa [1] and in the series on A549 was less than 4.30 each time.
Consider `CC(=O)Nc1ccc2ncc(-c3cnn(C)c3)cc2n1`, for which the pIC50 in the series on HeLa [1] and with A549 was less than 4.30 throughout.
On to `Cn1cc(-c2cnc3ccnc(NCC4CC4)c3c2)cn1`, for which the pIC50 in the series on HeLa [1] is 5.13; in the series with A549, 5.05.
For `Cn1cc(-c2cnc3ccc(NCc4ccc(F)cc4)nc3c2)cn1`, in that order: 4.33 and less than 4.30.
Regarding `CCNc1nccc2ncc(-c3cnn(C)c3)cc12`, the results for the pIC50 with HeLa [1] and with A549 were less than 4.30 and 4.39, respectively.
For `Cn1cc(-c2cnc3ccc(NS(=O)(=O)c4ccc(Cl)cc4Cl)nc3c2)cn1`, in that order: less than 4.30 and less than 4.30.
For `Cn1cc(-c2cnc3ccnc(NS(=O)(=O)c4c(Cl)cccc4Cl)c3c2)cn1`, in that order: less than 4.30 and less than 4.30.
Turning to `Cn1cc(-c2cnc3ccnc(NCc4ccc(F)cc4)c3c2)cn1`, the Activity entry with HeLa [2] is “Non-toxic”. The pIC50 in the series with HeLa [1] was 5.04; in the series with A549, 5.28.
For the compound `COc1ccc(CNc2nccc3ncc(-c4cnn(C)c4)cc23)cc1`, the pIC50 in the series with HeLa [1] is 4.37; in the series with A549 it was less than 4.30.
Take `CCNc1ccc2ncc(-c3cnn(C)c3)cc2n1`: the pIC50 in the series on HeLa [1] and with A549 was less than 4.30 throughout.
Take `Cn1cc(-c2cnc3ccc(NC(=O)C4CC4)nc3c2)cn1`: the pIC50 with HeLa [1] and in the series on A549 was less than 4.30 each time.
For the compound `Cc1ccc(S(=O)(=O)Nc2ccc3ncc(-c4cnn(C)c4)cc3n2)cc1`, the pIC50 is less than 4.30 in the series with HeLa [1] and 4.34 in the series with A549.
For `COc1ccc(CNc2ccc3ncc(-c4cnn(C)c4)cc3n2)cc1`, in that order: less than 4.30 and less than 4.30.
With `Cn1cc(-c2cnc3ccc(NCC4CC4)nc3c2)cn1`, the pIC50 in the series with HeLa [1] and in the series on A549 was less than 4.30 in each case.
As for `Cn1cc(-c2cnc3ccc(NC(=O)c4ccc(F)cc4)nc3c2)cn1`, the pIC50 in the series on HeLa [1] and in the series on A549 was less than 4.30 throughout.
For the compound `Cn1cc(-c2cnc3ccc(N)nc3c2)cn1`, the pIC50 in the series with HeLa [1] and with A549 was less than 4.30 in each case.
Turning to `Cn1cc(-c2cnc3ccnc(NC(=O)c4ccc(F)cc4)c3c2)cn1`, the negative-log IC50 (pIC50) in the series with HeLa [1] and with A549 was less than 4.30 throughout.
With `Cn1cc(-c2cnc3ccnc(NS(=O)(=O)c4ccc(C(F)(F)F)cc4)c3c2)cn1`, the pIC50 in the series on HeLa [1] and in the series with A549 was less than 4.30 each time.
With `COc1ccc(C(=O)Nc2nccc3ncc(-c4cnn(C)c4)cc23)cc1`, the pIC50 in the series with HeLa [1] and in the series with A549 was less than 4.30 each time.

Usually pIC50 stands for the IC50 on a negative log10 scale, so that one unit is a factor of ten.

The values are drawn from ChEMBL document CHEMBL3600358, “Design and synthesis of novel substituted naphthyridines as potential c-Met kinase inhibitors based on MK-2461” (Bioorg Med Chem Lett, 2015).
